The source of these data is the supplement of paper PMC6461962.

In assay [1] the test system is Rhodanobacter sp. FW104-10B01. An outline of the steps: (§1)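 Washed cells (final OD600 0.02, 80 µL) were added to 384-well plates of serially diluted inorganic ion salts or equimolar nitrilotriacetic acid complexes. Aerobic plates were shaken at 700 rpm at 30 °C, and anaerobic plates were left unshaken. OD600 was read at 24 h (48 h for R2A strain comparisons) and scaled between water and growth-blocking antibiotic controls, dropping wells with precipitate. IC50 came from drc R package fits of at least two biological replicate curves.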

The test system of assay [2] is Pseudomonas fluorescens FW300-N2E2. The method, boiled down: as §1
Where [3] appears, read: medium / electron acceptor: 10B01 R2A/aerobic.
The mark [4] stands for this setting: medium / electron acceptor: 10B01 R2A/nitrate.
[5] abbreviates: medium / electron acceptor: N2E2 Glucose/aerobic.
Where [6] appears, read: medium / electron acceptor: N2E2 Glucose/aerobic 0.25xMinerals.
[7] abbreviates: medium / electron acceptor: N2E2 Glucose/aerobic (2).
[8] abbreviates: medium / electron acceptor: N2E2 KB/aerobic.
The mark [9] stands for this setting: medium / electron acceptor: N2E2 LB/aerobic.
[10] abbreviates: medium / electron acceptor: N2E2 LB/aerobic (2).
Setting [11] is: medium / electron acceptor: N2E2 LB/nitrate.
[12] abbreviates: medium / electron acceptor: N2E2 Lactate/aerobic.
The mark [13] stands for this setting: medium / electron acceptor: N2E2 R2A/aerobic.

Structures can show the parent of a compound that is named as a salt. Where only a bound is given, the exact number is not on record here.

For the molecule `[K+].[OH-].[OH-].[OH-].[OH-].[OH-].[OH-].[Sb+3]` [potassium hexahydroxoantimonate], the IC50 growth inhibition in assay [1] (setting [3]) is more than 5 mM; in assay [1] (setting [4]), more than 5 mM; in assay [2] (setting [5]), more than 5 mM; in assay [2] (setting [6]) it was 3.96 mM; in assay [2] (setting [7]) it was 4.82 mM; in assay [2] (setting [8]), 4.98 mM. Moreover, the IC50 growth inhibition is more than 5 mM in assay [2] (setting [9]); 4.82 mM in assay [2] (setting [10]); 3.08 mM in assay [2] (setting [11]); more than 5 mM in assay [2] (setting [12]); more than 5 mM in assay [2] (setting [13]).

In the case of `[Cl-].[Cs+]` [Cesium chloride], the IC50 growth inhibition in assay [1] (setting [3]) was 0.452 mM; in assay [1] (setting [4]) it was 3.79 mM; in assay [2] (setting [5]) it was less than 0.244 mM; in assay [2] (setting [6]), less than 0.244 mM; in assay [2] (setting [7]), less than 0.244 mM; in assay [2] (setting [8]), 0.791 mM. Also, the IC50 growth inhibition was 5.91 mM in assay [2] (setting [9]); 2.14 mM in assay [2] (setting [10]); 16.6 mM in assay [2] (setting [11]); less than 0.244 mM in assay [2] (setting [12]); 1.2 mM in assay [2] (setting [13]).

`O=NO` [Sodium nitrite]: the IC50 growth inhibition is more than 50 mM in assay [1] (setting [3]); more than 50 mM in assay [1] (setting [4]); 17.3 mM in assay [2] (setting [5]); 6.63 mM in assay [2] (setting [6]); 3.89 mM in assay [2] (setting [7]); 15.3 mM in assay [2] (setting [8]). For the same molecule, the IC50 growth inhibition was determined as 22.8 mM in assay [2] (setting [9]); 41.6 mM in assay [2] (setting [10]); 14.8 mM in assay [2] (setting [11]); 23 mM in assay [2] (setting [12]); 8.81 mM in assay [2] (setting [13]).

On to `Cl.N` [Ammonium chloride], for which the IC50 growth inhibition in assay [1] (setting [3]) was more than 500 mM; in assay [1] (setting [4]), more than 500 mM; in assay [2] (setting [5]), 354 mM; in assay [2] (setting [6]), 347 mM; in assay [2] (setting [7]), 330 mM; in assay [2] (setting [8]), 333 mM. The IC50 growth inhibition in assay [2] (setting [9]) is 372 mM; in assay [2] (setting [10]), 422 mM; in assay [2] (setting [11]) it was 199 mM; in assay [2] (setting [12]), 355 mM; in assay [2] (setting [13]), more than 500 mM.

`[I-].[Na+]` [sodium iodide]: the IC50 growth inhibition was 354 mM in assay [1] (setting [3]); 319 mM in assay [1] (setting [4]); 59.4 mM in assay [2] (setting [5]); more than 500 mM in assay [2] (setting [6]); 107 mM in assay [2] (setting [7]); 304 mM in assay [2] (setting [8]). Further, the IC50 growth inhibition in assay [2] (setting [9]) amounted to 330 mM; in assay [2] (setting [10]), 354 mM; in assay [2] (setting [11]), 125 mM; in assay [2] (setting [12]), 124 mM; in assay [2] (setting [13]), 237 mM.

As for `O.O.O.O.O.O.[Cl][Ni][Cl]` [Nickel (II) chloride hexahydrate], the IC50 growth inhibition stood at 1.03 mM in assay [1] (setting [3]); 1.82 mM in assay [1] (setting [4]); 0.0112 mM in assay [2] (setting [5]); 0.00556 mM in assay [2] (setting [6]); 0.0143 mM in assay [2] (setting [7]); 3.92 mM in assay [2] (setting [8]). Also, the IC50 growth inhibition is 3.59 mM in assay [2] (setting [9]); more than 5 mM in assay [2] (setting [10]); more than 5 mM in assay [2] (setting [11]); 0.0276 mM in assay [2] (setting [12]); 0.221 mM in assay [2] (setting [13]).

On to `[Cl-].[Rb+]` [rubidium chloride], for which the IC50 growth inhibition in assay [1] (setting [3]) is 354 mM; in assay [1] (setting [4]), more than 500 mM; in assay [2] (setting [5]), 17.4 mM; in assay [2] (setting [6]), 251 mM; in assay [2] (setting [7]), 15.7 mM; in assay [2] (setting [8]), 349 mM. Further, the IC50 growth inhibition in assay [2] (setting [9]) was 387 mM; in assay [2] (setting [10]) it was 384 mM; in assay [2] (setting [11]), 284 mM; in assay [2] (setting [12]), 168 mM; in assay [2] (setting [13]), more than 500 mM.

For `O.O.O.O.[Cl][Mn][Cl]` [Manganese (II) chloride tetrahydrate], the IC50 growth inhibition was more than 5 mM in assay [1] (setting [3]); more than 5 mM in assay [1] (setting [4]); more than 5 mM in assay [2] (setting [5]); more than 5 mM in assay [2] (setting [6]); 1.57 mM in assay [2] (setting [7]); more than 5 mM in assay [2] (setting [8]). Moreover, the IC50 growth inhibition in assay [2] (setting [9]) was 3.79 mM; in assay [2] (setting [10]), 3.91 mM; in assay [2] (setting [11]) it was more than 5 mM; in assay [2] (setting [12]), more than 5 mM; in assay [2] (setting [13]), 1.45 mM.

On to `[Na+].[Na+].[O]=[Mo](=[O])([O-])[O-]` [Sodium molybdate], for which the IC50 growth inhibition in assay [1] (setting [3]) came out at 354 mM; in assay [1] (setting [4]), 262 mM; in assay [2] (setting [5]), 20.3 mM; in assay [2] (setting [6]), 2.62 mM; in assay [2] (setting [7]), 3.39 mM; in assay [2] (setting [8]), 337 mM. Further, the IC50 growth inhibition in assay [2] (setting [9]) was 369 mM; in assay [2] (setting [10]), 354 mM; in assay [2] (setting [11]), 214 mM; in assay [2] (setting [12]), 162 mM; in assay [2] (setting [13]), 231 mM.

`[Cl][Bi]([Cl])[Cl]` [bismuth(III) chloride]: the IC50 growth inhibition turned out to be 0.00279 mM in assay [1] (setting [3]); 0.354 mM in assay [1] (setting [4]); 0.0103 mM in assay [2] (setting [5]); 0.00276 mM in assay [2] (setting [6]); 0.00153 mM in assay [2] (setting [7]); 0.0578 mM in assay [2] (setting [8]). The IC50 growth inhibition in assay [2] (setting [9]) came out at 0.0727 mM; in assay [2] (setting [10]), 0.103 mM; in assay [2] (setting [11]) it was 0.00603 mM; in assay [2] (setting [12]), 0.00786 mM; in assay [2] (setting [13]), 0.00401 mM.

As to `O=C(O)C[C@H](NCCN[C@@H](CC(=O)O)C(=O)O)C(=O)O` [Ethylenediamine-N,N'-disuccinic acid], the IC50 growth inhibition is 1.76 mM in assay [1] (setting [3]); 2.76 mM in assay [1] (setting [4]); less than 0.122 mM in assay [2] (setting [5]); less than 0.122 mM in assay [2] (setting [6]); less than 0.122 mM in assay [2] (setting [7]); less than 0.122 mM in assay [2] (setting [8]). Moreover, the IC50 growth inhibition in assay [2] (setting [9]) was less than 0.122 mM; in assay [2] (setting [10]), less than 0.122 mM; in assay [2] (setting [11]), 0.488 mM; in assay [2] (setting [12]), less than 0.122 mM; in assay [2] (setting [13]), less than 0.122 mM.

Regarding `[Br-].[Na+]` [sodium bromide], the IC50 growth inhibition in assay [1] (setting [3]) is more than 500 mM; in assay [1] (setting [4]) it was more than 500 mM; in assay [2] (setting [5]), 354 mM; in assay [2] (setting [6]) it was 405 mM; in assay [2] (setting [7]) it was 379 mM; in assay [2] (setting [8]), 354 mM. For the same molecule, the IC50 growth inhibition is 354 mM in assay [2] (setting [9]); 354 mM in assay [2] (setting [10]); 303 mM in assay [2] (setting [11]); 378 mM in assay [2] (setting [12]); 448 mM in assay [2] (setting [13]).

With `NO` [Hydroxylamine hydrochloride], the IC50 growth inhibition was 31.9 mM in assay [1] (setting [3]); more than 500 mM in assay [1] (setting [4]); less than 0.244 mM in assay [2] (setting [5]); less than 0.244 mM in assay [2] (setting [6]); less than 0.244 mM in assay [2] (setting [7]); less than 0.244 mM in assay [2] (setting [8]). In addition, the IC50 growth inhibition in assay [2] (setting [9]) is less than 0.244 mM; in assay [2] (setting [10]) it was less than 0.244 mM; in assay [2] (setting [11]) it was 0.694 mM; in assay [2] (setting [12]), less than 0.244 mM; in assay [2] (setting [13]), less than 0.244 mM.
